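Exposure lasted 48 hours, with cells grown in 96-well plates and compounds tested at five concentrations. Abbreviation: GI50, concentration required for 50% inhibition of growth.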 The source made the active and inactive calls. Cut-off read from the data, not from the text of the source: active = GI50 up to about 1.1 µM and inactive = higher.
Experiments:
Assay in all cases: inhibition of tumour cell growth, NCI panel, 48 h
TK-10 = test system: TK-10
COLO 205 = test system: COLO 205
HCT-116 = test system: HCT-116
SW-620 = test system: SW-620
SK-MEL-28 = test system: SK-MEL-28
HCT-15 = test system: HCT-15
CAKI-1 = test system: CAKI-1
A549 = test system: A549
NCI-H226 = test system: NCI-H226
Malme-3M = test system: Malme-3M
UACC-62 = test system: UACC-62
HCC 2998 = test system: HCC 2998
DMS-114 = test system: DMS-114
SK-OV-3 = test system: SK-OV-3
HT-29 = test system: HT-29
M19-MEL = test system: M19-MEL
OVCAR-4 = test system: OVCAR-4
SF-539 = test system: SF-539

Row | SMILES | GI50 (TK-10) | GI50 (COLO 205) | GI50 (HCT-116) | GI50 (SW-620) | GI50 (SK-MEL-28) | GI50 (HCT-15) [µM] | GI50 (CAKI-1) | GI50 (A549) | GI50 (NCI-H226) | GI50 (Malme-3M) | GI50 (UACC-62) | GI50 (HCC 2998) | GI50 (DMS-114) | GI50 (SK-OV-3) | GI50 (HT-29) | GI50 (M19-MEL) | GI50 (OVCAR-4) | GI50 (SF-539)
1 | CN(C)CCn1c2ccccc2c2nc3cc4ccccc4cc3nc21 | 10.5 µM (inactive) | 1.87 µM (inactive) | 3.79 µM (inactive) | 3.48 µM (inactive) | 9.23 µM (inactive) | 4.81 | 4.91 µM (inactive) | 3.67 µM (inactive) | 14 µM (inactive) | 10 µM (inactive) | 9.14 µM (inactive) | 5.69 µM (inactive) | 6.47 µM (inactive) | 5.75 µM (inactive) | 0.643 µM (active) | 8.73 µM (inactive) | 7.91 µM (inactive) | 
2 | NNC(=S)N/N=C(/C(=O)Nc1cc(Cl)ccc1Cl)C1C(=O)Nc2ccccc2[S+]1[O-] (stereo not drawn) | > 100 µM (inactive) | > 100 µM (inactive) | > 100 µM (inactive) | > 100 µM (inactive) | > 100 µM (inactive) | > 100 | > 100 µM (inactive) | 73.3 µM (inactive) | > 100 µM (inactive) | > 100 µM (inactive) | > 100 µM (inactive) | > 100 µM (inactive) | > 100 µM (inactive) | > 100 µM (inactive) | > 100 µM (inactive) | > 100 µM (inactive) | > 100 µM (inactive) | > 100 µM (inactive)
3 | CCN1CCC(O)(c2ccc(OC)cc2)C(C(=O)c2ccc(OC)cc2)C1 (stereo not drawn) | 3.28 µM (inactive) | 22.9 µM (inactive) | 22.8 µM (inactive) | 10.8 µM (inactive) | 3.25 µM (inactive) | 20.3 | 17.2 µM (inactive) | 18.1 µM (inactive) | > 100 µM (inactive) |  | 16.9 µM (inactive) | 19.4 µM (inactive) | 18.7 µM (inactive) | > 100 µM (inactive) | 22 µM (inactive) | 18.3 µM (inactive) | 17.7 µM (inactive) | 17 µM (inactive)
4 | Cc1cccc(C)c1NC(=O)CCCC(=O)C1/C(=N/NC(=O)CC#N)CCC/C1=N\NC(=O)CC#N (stereo not drawn) | > 100 µM (inactive) | > 100 µM (inactive) | > 100 µM (inactive) | > 100 µM (inactive) | > 100 µM (inactive) | > 100 | > 100 µM (inactive) | > 100 µM (inactive) | > 100 µM (inactive) | > 100 µM (inactive) | > 100 µM (inactive) | > 100 µM (inactive) | > 100 µM (inactive) | > 100 µM (inactive) | > 100 µM (inactive) | > 100 µM (inactive) | > 100 µM (inactive) | > 100 µM (inactive)
5 | C[C@H]1CCC2C(CN3CCCCC3)C(=O)OC2[C@]2(C)C(=O)CC(N3CCCCC3)C12O (stereo partly drawn) | 16.6 µM (inactive) | 4.69 µM (inactive) | 2.94 µM (inactive) | 3.64 µM (inactive) | 4.18 µM (inactive) |  | 15.7 µM (inactive) | 28.2 µM (inactive) | 0.083 µM (active) | 9.44 µM (inactive) | 2.36 µM (inactive) | 5.87 µM (inactive) | 3.2 µM (inactive) | 28.6 µM (inactive) | 3.9 µM (inactive) | 5.3 µM (inactive) |  | 2.26 µM (inactive)
6 | CC1(C)CCc2cc3c(cc2O1)OCC1c2cc4c(cc2OC31)OCO4 (stereo not drawn) | 99.8 µM (inactive) | > 100 µM (inactive) | > 100 µM (inactive) | > 100 µM (inactive) |  | 63 | > 100 µM (inactive) | > 100 µM (inactive) | > 100 µM (inactive) | 32.7 µM (inactive) | > 100 µM (inactive) | > 100 µM (inactive) | > 100 µM (inactive) | > 100 µM (inactive) | > 100 µM (inactive) | 82.4 µM (inactive) | > 100 µM (inactive) | > 100 µM (inactive)
7 | O=C(NCCCN1CCN(CCCNC(=O)c2cccc3ccccc23)CC1)c1cccc2ccccc12 | 65.3 µM (inactive) | > 100 µM (inactive) | 39.1 µM (inactive) | > 100 µM (inactive) |  | > 100 | 51.3 µM (inactive) | > 100 µM (inactive) | > 100 µM (inactive) | 57.4 µM (inactive) | > 100 µM (inactive) | 35.1 µM (inactive) | 59.8 µM (inactive) | 23 µM (inactive) | 41.2 µM (inactive) | > 100 µM (inactive) | > 100 µM (inactive) | 54.7 µM (inactive)
8 | C/C=C/C=N/N(C(=O)c1cc([N+](=O)[O-])cc([N+](=O)[O-])c1)C1=NN=C(c2ccccc2)C(c2ccccc2)N1 (stereo not drawn) | > 100 µM (inactive) | 30.5 µM (inactive) | 30.2 µM (inactive) | 55 µM (inactive) | 97.7 µM (inactive) | 41.4 | > 100 µM (inactive) | 61.2 µM (inactive) | > 100 µM (inactive) | 25.6 µM (inactive) | 51.8 µM (inactive) | 34 µM (inactive) | 21 µM (inactive) | > 100 µM (inactive) | 35.6 µM (inactive) | 21.6 µM (inactive) | 68.4 µM (inactive) | 42.5 µM (inactive)
